Assay results as given in article PMC13330650 (Matrix biology : journal of the International Society for …, 2025).
Changes are numbered by the printed parent chain.

Legend:
UGDH WT [1] = biological target: T1, UGDH WT (Homo sapiens, UniProt O60701); assay: isothermal titration calorimetry, UDP-Xylose binding to UGDH WT; details: ITC, single-site binding model
T1 construct: six-histidine; made in house; host or cells: E. coli BL21(DE3)
T1 sequence (O60701 1-494): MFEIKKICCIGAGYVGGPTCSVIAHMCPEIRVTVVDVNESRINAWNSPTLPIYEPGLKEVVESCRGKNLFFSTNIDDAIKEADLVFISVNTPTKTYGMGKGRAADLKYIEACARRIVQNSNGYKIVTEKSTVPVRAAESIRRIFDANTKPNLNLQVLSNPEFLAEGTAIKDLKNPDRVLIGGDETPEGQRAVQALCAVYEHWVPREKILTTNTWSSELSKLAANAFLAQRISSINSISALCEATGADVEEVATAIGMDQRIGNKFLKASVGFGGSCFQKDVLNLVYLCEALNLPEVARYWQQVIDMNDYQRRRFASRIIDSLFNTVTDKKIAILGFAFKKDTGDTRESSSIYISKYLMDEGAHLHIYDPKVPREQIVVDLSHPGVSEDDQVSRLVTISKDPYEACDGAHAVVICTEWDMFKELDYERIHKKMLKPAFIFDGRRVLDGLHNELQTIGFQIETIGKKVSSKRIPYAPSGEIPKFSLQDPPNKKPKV
From the text: (§1) Finally, we tested whether the S316 point mutants impacted inhibition of UGDH by UDP-xylose (UDP-Xyl), which is an endogenous competitive inhibitor of UGDH with nM affinity that causes a conformational change in the crystal structure exposing one of the dimer interfaces. We measured the concentration dependence of UDP-Xyl inhibition in the context of the catalytic reaction at sub-saturating UDP-Glc and NAD^+ and used the resultant curves to calculate the IC50 for UGDH S316A and S316D (Table 1). […] Binding of UDP-Xyl to UGDH independently of catalysis was measured by ITC. […]
(§2) Purified S316 mutants were compared to the UGDH WT enzyme using the following approaches as previously described. Enzymatic activity was evaluated by steady state kinetics in the presence and absence of the endogenous inhibitor UDP-Xylose to compare Michaelis constants and IC50 values. Intrinsic stability was assessed by thermal denaturation and quaternary structure was determined by size exclusion chromatography. Binding of UDP-Xylose to recombinant UGDH and mutants was measured by isothermal titration calorimetry using the MicroCal PEAQ-ITC (Malvern Panalytical). […] Binding heats were corrected for the heat of dilution and analyzed using the MicroCal PEAQ-ITC Analysis Software, employing a single-site binding model to determine Kd values.

UGDH S316D [2] = biological target: T2, UGDH S316D (Homo sapiens, UniProt O60701, S316D); assay: UDP-Xyl inhibition of the catalytic reaction, UGDH S316D; format: biochemical; details: sub-saturating UDP-Glc and NAD+, read-out: UDP-Xylose IC50
T2 construct: six-histidine; made in house; host or cells: E. coli BL21(DE3)
T2 sequence (O60701 1-494 S316D): T1 sequence (O60701 1-494) with S316D
From the text: as §1, §2

UGDH S316A [3] = biological target: T3, UGDH S316A (Homo sapiens, UniProt O60701, S316A); assay: isothermal titration calorimetry, UDP-Xylose binding to UGDH S316A; details: ITC, single-site binding model
T3 construct: six-histidine; made in house; host or cells: E. coli BL21(DE3)
T3 sequence (O60701 1-494 S316A): T1 sequence (O60701 1-494) with S316A
From the text: as §1, §2

UGDH S316D [4] = biological target: T2, UGDH S316D; assay: isothermal titration calorimetry, UDP-Xylose binding to UGDH S316D; details: ITC
From the text: as §1, §2

UGDH WT [5] = biological target: T1, UGDH WT; assay: UDP-Xyl inhibition of the catalytic reaction, UGDH WT; format: biochemical; details: sub-saturating UDP-Glc and NAD+, read-out: UDP-Xylose IC50
From the text: as §1, §2

UGDH S316A [6] = biological target: T3, UGDH S316A; assay: UDP-Xyl inhibition of the catalytic reaction, UGDH S316A; format: biochemical; details: sub-saturating UDP-Glc and NAD+, read-out: UDP-Xylose IC50
From the text: as §1, §2

[7] = biological target: T4, UGDH S316 phosphorylation by RSK2, S6K1, SGK1 (Homo sapiens, UniProt O60701); assay: in vitro kinase assay, phosphorylation of UGDH S316; format: biochemical; details: in vitro kinase assays with RSK2, S6K1, SGK1; data not shown
T4 construct: made in house
T4 sequence (O60701 1-494): T1 sequence (O60701 1-494)
Description: Due to the location of UGDH S316 at the dimeric interface, we tested whether UGDH oligomeric status influenced the ability of each kinase to phosphorylate UGDH S316. In vitro kinase assays were performed to compare phosphorylation of UGDH S316 in the WT enzyme versus the UGDH T325D obligate dimer mutant. All three kinases produced a phosphorylation band in the dimeric UGDH T325D as expected.
Recombinant UGDH (100 μg) was incubated for 2 h at 30 °C with 1 μg of each kinase and either activated by addition of ATP (200 μM) or a conjugatable ATP analogue, γ-[(6-Azidohexyl)-imido]-ATP. Phosphorylated UGDH was detected by western analysis (using anti-pAkT substrate antibody) or by SDS-PAGE following reaction with tetramethylrhodamine (TAMRA) alkyne, copper, THPTA, and sodium ascorbate.

Kd (UGDH WT [1]): 0.091 ± 0.035 µM | IC50 (UGDH S316D [2]): 0.25 ± 0.03 µM | Kd (UGDH S316A [3]): 0.071 ± 0.02 µM | Kd for UGDH S316D relative to Kd values for UGDH WT and S316A (UGDH S316D [4]; higher for S316D): ≈ 2 fold | Kd (UGDH S316D [4]; UGDH S316D, single-site binding model): 0.15 ± 0.03 µM | IC50 (UGDH WT [5]): 0.22 ± 0.05 µM | IC50 (UGDH S316A [6]): 0.25 ± 0.06 µM | effect of UDP-Xyl on phosphorylation of UGDH S316 [7]: did not impact phosphorylation
Structure (SMILES): O=c1ccn([C@@H]2O[C@H](COP(=O)(O)OP(=O)(O)O[C@H]3OC[C@@H](O)[C@H](O)[C@H]3O)[C@@H](O)[C@H]2O)c(=O)[nH]1 [UDP-Xylose]
